Test results taken from patent publication US20250271361A1, “SUPERCONTINUUM INTRINSIC FLUORESCENCE IMAGING” (The Board of Trustees of the University of Illinois, priority 2024, published 2025).

Assays:
[1] = tested on: hamster kidney fibroblast cells BHK-21; assay: SCIFI/SOMI endpoint (snapshot) imaging assay of in vitro hamster kidney cells treated with a drug or imaging agent; type: cell-based, Syrian golden hamster
Method: Next, the interaction between in vitro hamster kidney cells with a drug or imaging agent were evaluated.
Power-dependent “imaging” experiments were conducted on the prepared solutions and coverslip across the six colors by an excitation that would be standardized for biological imaging. […] For the 6-color SOMI images (1024×1024 pixels) collected from a biological sample, the raw intensity image of each color was converted into a photon-count image (unit: photon/pulse) using the established (calibrated) relation for that color at the same photomultiplier gain. Then, some (2-72) discernable single cells or cell clusters were manually segmented in the 6-color photon-count images. Finally, the SOMI intensity profiles of segmented single cells (or cell clusters) averaged over the corresponding pixels were obtained after a background subtraction. Specifically, the background of the culture medium in the empty space among the segmented cells was subtracted for 2D cell culture samples while the background with blocked illumination was subtracted for all 3D (tissue) samples.
In contrast to reductionism-based imaging, the lack of FLIM capability for general fluorescence imaging presented another challenge that may have contributed to the low popularity of comparative systems biology-based imaging strategies. Due to the high dynamic range of SOMI in gentle biological imaging, comparative photon counting of FLIM with low dynamic range (<0.2 photon/pulse, typically) cannot be used. To recover this capability, time-resolved photon counts were determined using computational photon counting, which provides single-photon accuracy for signals with high dynamic range. The output of three analog output photomultipliers for 4PAF, 3PAF, and 2PAF was optionally amplified with a high-speed transimpedance amplifier (C5594, Hamamatsu), and digitized at 2 GS/s with a high-speed digitizer (ATS9373, AlazarTech). Digitized values were saved, and photon-counting and lifetime information was computed in post-processing using custom MATLAB scripts (Mathworks). FLIM for the 2PAF and 3PAF colors were validated using NADH, FAD, and other standard dyes. To calibrate computational photon counting for 4PAF, Trp solutions from 0 to 50 mM were examined and a single-photon peak threshold was determined based on the peak height histogram to ensure a linear relationship between intensity and concentration over this range. After computational photon counting, mean fluorescence lifetime and phasor components g and s were determined by phasor analysis. For single-cell quantification, all fluorescence decays within a segmented cell were summed together, and one mean fluorescence lifetime was estimated from the total decay, along with one g and one s value.
(§1) In the above experiments (e.g., in the procedures used to generate the images described above), the following materials and methods were provided or performed. Adherent Syrian golden hamster kidney fibroblast cells BHK-21 (clone 13, ATCC CCL-10) were cultured in phenol red-free Eagle's Minimum Essential Medium (EMEM) supplemented with 10% FBS, 1% penicillin-streptomycin-amphotericin B (PSA), and 2.5 mM L-Glutamine at 37° C. under 5% CO2, and atmospheric O2 conditions. Before imaging, 1 mL of trypsinized cells was resuspended in 1 mL of 1×TrypLE™ Select Enzyme cell dissociation reagent (TFS, Cat #12563029). The cells were plated on poly-D-lysine coated 35-mm diameter glass-bottom imaging dishes and maintained inside a humidified incubator with 5% CO2 and 21% O2 conditions at 37° C. The incubation time varied between 1-6 hours while the culture media might be supplemented with specific drugs or labeling agents at […] concentrations. The cells were imaged within 10 min of being taken out of the incubator.

live BHK-21 cells [2] = assay: time-lapse kinetic imaging assay (single-cell pharmacokinetic SOMI) of hamster kidney cells after transient exposure; details: for cellular uptake by endocytosis via THG-visible nanovesicles: comparative kinetic assays of two mitochondrial uncouplers
Method: as §1
Large area or 3D SOMI was enabled by a motorized sample stage. Without moving the stage, time-lapse imaging of dynamic phenomenon or frame-averaged imaging of static samples were conducted in a constant field-of-view. Single-cell pharmacokinetics imaging was performed in a time-lapse SOMI of 200-frame period at the center of a 35-mm diameter glass-bottom imaging culture dish with 2 mL culture media of live BHK-21 cells. During the imaging near the 50-frame timepoint, 0.1 mL of preprepared concentrated solution of a drug (BAM15/FCCP) or labeling agent (AP3) was injected in ˜1 s by a mounted pipette into the center of the dish, attaining an ending/equilibrium concentration of […]. The fluorescence from AP3 in a segmented empty space among the cells was used to detect the transient concentration profile of injected drugs and labeling agents during the time-lapse imaging.

live BHK-21 cells [3] = details: statement of general knowledge, explained by the kinetic assay; cited from earlier work
[4] = apoptotic hamster kidney cells, endpoint assay

Structure (SMILES)	LFI (lipofuscin fluorescence independence extent) ([1]; in vitro hamster kidney cells, endpoint assay, control 32%) [%]	cytotoxicity sensed in real-time by 4PIF (live BHK-21 cells [2]; at a high concentration, transient exposure)	rise in FAD* coinciding with sudden decrease in ETC (live BHK-21 cells [2]; both BAM15 concentrations, kinetic assay) [fold]	induced FAD* in cytoplasm, BAM15 compared with FCCP (live BHK-21 cells [2]; comparative kinetic assays)	cellular uptake by endocytosis via THG-visible nanovesicles (live BHK-21 cells [2])	toxicity in mitochondrial uncoupling, compared with FCCP (live BHK-21 cells [3])	LFI versus treatment-free control [1, 4]	ORR (optical redox ratio) versus treatment-free control [1, 4]	LFR (LOP-to-FAD ratio) ([1]; in vitro STS-induced apoptosis confirmed by single-cell morphological change)	apoptosis via modified cell morphology ([1]; in vitro hamster kidney cells, endpoint assay, different fields)	3PIF (NADH) in 6-color profile ([1]; in vitro hamster kidney cells, label-free biomarker of apoptosis)	color through which cells respond (live BHK-21 cells [2]; transient exposure, kinetic assay) [PIF/NADH but not THG]
Fc1ccccc1Nc1nc2nonc2nc1Nc1ccccc1F [BAM15]	44	confirmed	~10	surprisingly larger	might enable cellular uptake	less toxic than FCCP	–	–	–	–	–	–
N#CC(C#N)=NNc1ccc(OC(F)(F)F)cc1 [FCCP]	–	–	–	–	not	–	–	–	–	–	–	–
CN[C@@H]1C[C@H]2O[C@@](C)([C@@H]1OC)n1c3ccccc3c3c4c(c5c6ccccc6n2c5c31)C(=O)NC4 [STS, staurosporine]	–	–	–	–	–	–	retained a low LFI	reduced ORR	increase in LFR	induced apoptosis	peaked	3
